# Experimental data from ChEMBL document CHEMBL1157384, “Apratoxin D, a potent cytotoxic cyclodepsipeptide from papua new guinea collections of the marine cyanobacteria Lyngbya majuscula and Lyngbya sordida” (J Nat Prod, 2008).
# Test system: NCI-H460
# Test: Cytotoxicity against human H460 cells after 48 hrs by MTT assay
# Assay type: functional, cell-based
# Conditions: NCI-H460, 48 h
structure (smiles),measurement,value
CC[C@H](C)[C@H]1C(=O)N2CCC[C@H]2C(=O)O[C@H]([C@@H](C)CC(C)(C)C)C[C@@H](C)C[C@H](O)[C@H](C)C2=N[C@@H](/C=C(\C)C(=O)N[C@@H](Cc3ccc(OC)cc3)C(=O)N(C)[C@@H](C)C(=O)N1C)CS2 [APRATOXIN D],IC50,2.6 nM
